Reference: the NIST ThermoML archive (doi:10.1021/je060411g)

Test: molar heat capacity at constant pressure
Conditions: 101.33 kPa, Liquid

CCCC(C)O (stereo not drawn) [pentan-2-ol]
Conditions	molar heat capacity at constant pressure [J/K/mol]
168.38 K	149.64
169.15 K	148.62
171.15 K	148.98
171.34 K	150.12
173.15 K	149.17
174.31 K	150.62
175.15 K	149.61
177.14 K	150.03
177.27 K	151.24
179.14 K	150.37
180.22 K	151.84
181.14 K	150.83
183.13 K	151.22
183.15 K	152.41
185.13 K	151.66
186.06 K	153.18
187.13 K	152.22
188.97 K	153.85
189.12 K	152.69
191.11 K	153.28
191.86 K	154.61
193.1 K	153.79
194.73 K	155.46
195.09 K	154.43
197.08 K	155.04
197.6 K	156.28
199.07 K	155.64
200.45 K	157.17
201.05 K	156.37
203.04 K	157.14
203.28 K	158.12
205.02 K	157.9
206.11 K	159.16
207 K	158.71
208.92 K	160.23
208.98 K	159.59
210.96 K	160.43
211.71 K	161.38
212.93 K	161.43
214.5 K	162.6
214.9 K	162.36
216.87 K	163.53
217.27 K	163.98
218.83 K	164.58
220.03 K	165.38
220.79 K	165.86
222.74 K	167.19
222.77 K	166.74
224.69 K	168.3
225.5 K	168.21
226.64 K	169.58
228.21 K	169.75
228.58 K	170.97
230.52 K	172.4
230.92 K	171.38
232.46 K	173.26
233.61 K	173.02
234.41 K	174.28
236.28 K	174.82
236.37 K	175.25
238.35 K	176.25
238.94 K	176.57
240.33 K	177.32
241.59 K	178.24
242.31 K	178.65
244.22 K	179.98
244.29 K	180.19
246.27 K	181.71
246.84 K	181.91
248.24 K	183.24
249.45 K	183.85
250.22 K	184.81
252.04 K	185.96
252.19 K	186.49
254.17 K	187.53
254.62 K	187.26
256.15 K	189.21
257.2 K	189.4
258.13 K	190.9
259.75 K	191.63
260.11 K	192.75
262.08 K	194.51
262.3 K	193.87
264.06 K	196.4
264.83 K	196.18
266.04 K	198.15
267.34 K	198.56
268.01 K	200.17
269.84 K	201.01
269.99 K	202.16
271.96 K	204.25
272.33 K	203.73
273.94 K	206.27
274.8 K	206.33
275.91 K	208.32
277.26 K	208.61
277.88 K	210.5
279.7 K	211.18
279.86 K	212.62
281.83 K	214.76
282.13 K	213.77
283.81 K	216.99
284.54 K	216.55
285.79 K	219.38
286.94 K	219.25
287.77 K	221.67
289.33 K	222.07
289.75 K	224.09
291.7 K	224.87
291.73 K	226.3
293.71 K	228.63
294.06 K	227.43
295.69 K	231.18
296.41 K	230.08
297.66 K	233.65
298.75 K	233
299.65 K	235.81
301.07 K	235.62
